Assay results reported in paper PMC6030209, “Structure-Activity Investigations and Optimisations of Non-metabolite Agonists for the Succinate Receptor 1” (Scientific Reports, 2018).
Where two headings read alike, the source gives them in different places.

Columns and labels:
[1] = assay type: in vitro ADME, mouse; details: 1 hour, 1 μM, 0.5 mg/mL microsomes
Description: Microsomal stability was studied in mouse liver microsomes (0.5 mg/mL) at a final test compound concentration of 1 μM and performed in triplicates in accordance to the published protocol. In short: Prewarmed (37 °C) 0.1 M PBS7.4, 10 mM NADPH in PBS7.4 and test compound (1 mM in DMSO) were added to an Eppendorf® Tube. The samples were incubated for 5 min at 37 °C before addition of newly thawned microsomes. The samples were mixed by gentle vortexing and incubated for 1 h at 37 °C, 300 rpm in an Eppendorf® Thermomixer. Samples were quenched by addition of ice-cold MeOH/MeCN (1:1) and centrifuged for 5 min at 10,000 g. The supernatant was transferred to HPLC vials and stored in the freezer until analysis by HPLC/UPLC. The metabolic stability was calculated based on a 0 min sample. All compounds were analysed in triplicates.

SUCNR1 = test: Active/inactive grouping by EC50 threshold (ALiBERO training set, Table S1); assay type: cell-based; details: active (1) / inactive (0), EC50 threshold of 10 µM
Excerpt: In brief, starting from the homology model supported by mutagenesis data[4], ALiBERO introduced receptor flexibility via Normal Mode Analysis and Monte Carlo sampling, to generate a small subset of receptor models (pockets). […] For a list of all compounds used in the optimisation protocol, see Table S1. Receptor structures were then chosen based on their ability to discriminate actives from inactives in a retrospective virtual screening using the docking protocol and scoring function in ICM (Molsoft L.L.C., San Diego, CA, USA)[20], as measured by the normalised square root area under the curve (NSQ_AUC). […] The ALiBERO-optimised receptor ensemble was subsequently validated in a virtual ligand screening using an external test set with a higher active:decoy ratio (~1:50).
ALiBERO is an iterative sampling-selection protocol for receptor optimisation that relies on the use of ligand information for selecting the best-performing receptor conformations. Homology models of the mouse SUCNR1 receptor were constructed according to Trauelsen et al.[4] and loaded into ICM (Molsoft L.L.C., San Diego, CA, USA). The structure was converted into an ICM object, thereby assigning protein atom types, optimising hydrogens and His, Pro, Asn, […] and Cys side-chain conformations. […] For a list of all compounds used in the optimisation protocol, see Table S1. ALiBERO was performed using the prepared receptor structure and ligand training set as input. Binding site residues were manually selected based on proximity to the position of MRS2500 in the superimposed structure of the P2Y1 receptor (PDB 4XNW). 100 elastic network normal mode analysis derived conformers were built in order to recreate backbone and side-chain flexibility (T = 300 K). Next, a flexible-ligand static-receptor small-scale virtual screening was performed on each of the receptor conformers, from which several pockets were selected for the following generation. The ligand and decoy molecules were docked into mSUCNR1, represented as pre-calculated potential grids and then sorted according to their ICM VLS scores. The maximum number of complementary pockets for each generation was set to 5 with a maximum of 10 generations. Receptor models were selected based on their combined screening performance, as determined by the normalised square root area under the curve, NSQ_AUC. After each round of virtual screening, an all-atom Monte Carlo side-chain refinement was performed to account for induced-by-ligand changes. NSQ_AUC values were calculated according to Katritch et al.[16].

mSUCNR1 = biological target: T1, mSUCNR1 (Mus musculus, UniProt Q99MT6); test: IP3 turnover assay in mSUCNR1 transfected HEK-293 cells; assay type: cell-based; details: for mSUCNR1 efficacy, %: efficacy relative to succinate (100%), HEK cells (N = 3)
T1 construct: FLAG (own knowledge: pCMV-Tag 2B is an N-terminal FLAG vector); host or cells: HEK-293, transient transfection with Lipofectamine-2000
T1 sequence (Q99MT6 1-317): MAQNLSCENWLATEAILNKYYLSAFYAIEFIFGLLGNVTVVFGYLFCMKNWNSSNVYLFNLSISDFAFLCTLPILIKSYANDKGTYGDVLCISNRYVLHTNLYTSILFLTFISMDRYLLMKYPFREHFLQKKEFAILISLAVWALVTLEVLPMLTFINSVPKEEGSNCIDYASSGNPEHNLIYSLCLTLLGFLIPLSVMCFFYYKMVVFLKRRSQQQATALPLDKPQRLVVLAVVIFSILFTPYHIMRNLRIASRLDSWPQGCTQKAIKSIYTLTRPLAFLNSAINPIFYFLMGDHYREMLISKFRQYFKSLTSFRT
Description: (§1) Receptor constructs for mSUCNR1 and hSUCNR1 were bought from Origene and cloned into the eukaryotic expression vector pCMV-Tag(2B) (Stratagene).
(§2) Transient transfection of the HEK-293 cells was done with Lipofectamine-2000 according to manufacturer’s protocol. Cells were supplemented with fresh medium after 5 h.
(§3) 96-well plates were coated with poly-D-lysine and HEK-293 cells were plated (35.000 cells/well). Cells were transfected for 5 h the following day and subsequently incubated O/N with 0.5 μCi/mL myo[3H]inositol (Perkin Elmer) in 100 μL growth medium. On day 3 cells were washed with 200 µL HBSS/well (Gibco, Life Technologies) followed by a pre-incubation (30 min, 37 °C) with 100 µL HBSS supplemented with 10 mM LiCl. Cells were stimulated with ligand (120 min, 37 °C) and lysed with 50 µL 10 mM formic acid (30 min on ice). In a white 96 well plate 20 µL cell extracts and 80 µL 1:8 diluted YSi scintillation beads (Perkin Elmer) were mixed. The plate was spun down, and a Packard Top Count NXT counter recorded light emission (scintillation) after an 8 h delay.

[2] = assay type: in vitro ADME; details: 2 hours, 37 °C
Description: FaSSIF, FeSSGF and FaSSGF were prepared in accordance to the manufacturers procedure, Biorelevant.com. Triplicates of a 50 μM solution of the test compounds were prepared from a 10 mM stock solution in DMSO diluted with FaSSGF/FaSSIF/FeSSIF. The samples were incubated in an Eppendorf® Thermomixer (37 °C, 650 rpm). Samples were withdrawn at 0 min and 120 min, centrifuged (10 min at 10,000 rpm) and the supernatant analysed by HPLC/UPLC. The stability was calculated based on peak area of a 0 point sample.

physchem = assay type: physicochemical; details: pH 7.4, aqueous buffer, kinetic from dmso stock, 10 mM PBS7.4, 25 °C
Description: Duplicates of a 200 μM solution of the dicarboxylic acids were prepared from 0.01 M PBS7.4 and a 10 mM stock solution in DMSO. The samples were incubated in an Eppendorf® Thermomixer (25 °C, 800 rpm) for 24 h. Afterwards, the samples were centrifuged for 5 min at 11,000 rpm and the supernatant was filtered (0.45 μm PTFE membrane) before analysis by HPLC. The solubility was calculated based on a concentration-absorption curve.

[3] = assay type: physicochemical; details: after 70 hours in 10 mM PBS7.4, 37 °C
Description: Triplicates of a 50 μM solution of the test compounds were prepared from 0.01 M PBS7.4 and a 10 mM stock solution in DMSO. The samples were incubated in an Eppendorf® Thermomixer (37 °C, 650 rpm). The samples were briefly vortexed and 50 μL aliquots were withdrawn at the time points 0 h, 24 h, 48 h etc. and analysed immediately on UPLC. The chemical stability in PBS7.4 was determined at every time point in percentage relative to the 0 h time point.

hSUCNR1 = biological target: T2, hSUCNR1 (Homo sapiens, UniProt Q9BXA5); test: IP3 turnover assay in hSUCNR1 transfected HEK-293 cells; assay type: cell-based; details: for hSUCNR1 efficacy, %: efficacy relative to succinate (100%), HEK cells (N = 3)
T2 construct: FLAG (own knowledge: pCMV-Tag 2B is an N-terminal FLAG vector); host or cells: HEK-293, transient transfection with Lipofectamine-2000
T2 sequence (Q9BXA5 1-334): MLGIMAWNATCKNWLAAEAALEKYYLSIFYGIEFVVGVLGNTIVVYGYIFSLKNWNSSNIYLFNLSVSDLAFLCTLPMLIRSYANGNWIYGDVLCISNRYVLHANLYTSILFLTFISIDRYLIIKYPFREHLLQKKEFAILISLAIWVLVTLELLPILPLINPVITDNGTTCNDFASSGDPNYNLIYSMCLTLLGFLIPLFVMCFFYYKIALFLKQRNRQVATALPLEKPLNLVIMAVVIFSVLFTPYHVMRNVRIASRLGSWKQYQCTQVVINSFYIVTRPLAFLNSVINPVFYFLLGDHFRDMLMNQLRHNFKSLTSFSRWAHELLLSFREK
Description: as §1, §2, §3

[4] = dose-response curves of induction of IP3 turnover in SUCNR1 transfected HEK cells (N = 3), read-out: mSUCNR1 pEC50 (converted)
[5] = dose-response curves of induction of IP3 turnover in SUCNR1 transfected HEK cells (N = 3), read-out: hSUCNR1 pEC50 (converted)
[6] = @10^−4M, IP3 turnover, relative to succinate (100%)

CCOc1ccc(-c2ccc(C(=O)N[C@@H](CC(=O)O)C(=O)O)o2)cc1 [Compound 21, (5-(4-Ethoxyphenyl)furan-2-carbonyl)-L-aspartic acid]
stability in mouse liver microsomes [1]: stable | Active (SUCNR1): 1 (active (1)) | EC50 (mSUCNR1): 36.3 nM | mSUCNR1 efficacy, % (mSUCNR1; IP3 turnover): 70.2 ± 2.0% | stability in FaSSGF ([2]; simulated gastrointestinal fluid FaSSGF): stable | stability in FaSSIF ([2]; simulated gastrointestinal fluid FaSSIF): stable | stability in FeSSIF ([2]; simulated gastrointestinal fluid FeSSIF): stable | solubility kinetic at 24 h (physchem): > 200 µM | chemical stability [3]: > 98%

CC(C)Oc1ccc(-c2ccc(C(=O)N[C@@H](CC(=O)O)C(=O)O)o2)cc1 [Compound 22, (5-(4-Isopropoxyphenyl)furan-2-carbonyl)-L-aspartic acid]
Active (SUCNR1): 1 (active (1)) | EC50 (mSUCNR1): 51.3 nM | mSUCNR1 efficacy, % (mSUCNR1; IP3 turnover): 75.6 ± 1.7% | EC50 (hSUCNR1): 145 nM | hSUCNR1 efficacy, % (hSUCNR1; IP3 turnover): 69.6 ± 4.3%

CC1(COc2ccc(-c3ccc(C(=O)N[C@@H](CC(=O)O)C(=O)O)o3)cc2)COC1 [Compound 23, (5-(4-((3-Methyloxetan-3-yl)methoxy)phenyl)furan-2-carbonyl)-L-aspartic acid]
Active (SUCNR1): 1 (active (1)) | EC50 (mSUCNR1): 107 nM | mSUCNR1 efficacy, % (mSUCNR1; IP3 turnover): 82.4 ± 1.9% | reduction of potency (mSUCNR1; relative to the 4-methoxy compound 17, orthologue not stated): > 2 fold | EC50 (hSUCNR1): 537 nM | hSUCNR1 efficacy, % (hSUCNR1; IP3 turnover): 76.5 ± 3.1%

CS(=O)(=O)CCCOc1ccc(-c2ccc(C(=O)N[C@@H](CC(=O)O)C(=O)O)o2)cc1 [Compound 24, (5-(4-(3-(Methylsulfonyl)propoxy)phenyl)furan-2-carbonyl)-L-aspartic acid]
Active (SUCNR1): 1 (active (1)) | EC50 (mSUCNR1): 46.8 nM | mSUCNR1 efficacy, % (mSUCNR1; IP3 turnover): 74.6 ± 2.1% | EC50 (hSUCNR1): 794 nM | hSUCNR1 efficacy, % (hSUCNR1; IP3 turnover): 63.9 ± 2.4%

O=C(O)C[C@H](NC(=O)c1cccc(-c2ccc(F)cc2)c1)C(=O)O [Compound 25, (4′-Fluoro-[1,1′-biphenyl]-3-carbonyl)-L-aspartic acid]
Active (SUCNR1): 1 (active (1)) | EC50 (mSUCNR1; [4]): 3980 nM | mSUCNR1 efficacy, % (mSUCNR1; IP3 turnover): 58.0 ± 4.5% | decrease in potency on the mouse orthologue (mSUCNR1; relative to 3): 10 fold | EC50 (hSUCNR1; [5]): 1230 nM | hSUCNR1 efficacy, % (hSUCNR1; IP3 turnover): 49.7 ± 3.9%

O=C(O)C[C@H](NC(=O)c1ccc(-c2ccc(F)cc2)cc1)C(=O)O [Compound 26, (4′-Fluoro-[1,1′-biphenyl]-4-carbonyl)-L-aspartic acid]
Active (SUCNR1): 0 (inactive (0)) | mSUCNR1 % @10^−4M (mSUCNR1; [6]): 7% @10^−4M | hSUCNR1 % @10^−4M (hSUCNR1; [6]): 4% @10^−4M

O=C(O)C[C@H](NC(=O)c1cccc(-c2ccc(F)cc2)n1)C(=O)O [Compound 27, (6-(4-Fluorophenyl)picolinoyl)-L-aspartic acid]
Active (SUCNR1): 1 (active (1)) | EC50 (mSUCNR1; [4]): 794 nM | mSUCNR1 efficacy, % (mSUCNR1; IP3 turnover): 89.3 ± 6.1% | EC50 (hSUCNR1; [5]): 933 nM | hSUCNR1 efficacy, % (hSUCNR1; IP3 turnover): 78.2 ± 8.0%

COc1ccc(-c2cccc(C(=O)N[C@@H](CC(=O)O)C(=O)O)c2)cc1 [Compound 28, (4′-Methoxy-[1,1′-biphenyl]-3-carbonyl)-L-aspartic acid]
Active (SUCNR1): 1 (active (1)) | EC50 (mSUCNR1; [4]): 1200 nM | mSUCNR1 efficacy, % (mSUCNR1; IP3 turnover): 64.0 ± 2.5% | EC50 (hSUCNR1; [5]): 162 nM | hSUCNR1 efficacy, % (hSUCNR1; IP3 turnover): 58.0 ± 2.7%

COc1ccc(-c2cccc(C(=O)N[C@@H](CC(=O)O)C(=O)O)n2)cc1 [Compound 29, (6-(4-Methoxyphenyl)picolinoyl)-L-aspartic acid]
Active (SUCNR1): 1 (active (1)) | EC50 (mSUCNR1; [4]): 182 nM | mSUCNR1 efficacy, % (mSUCNR1; IP3 turnover): 71.2 ± 3.2% | EC50 (hSUCNR1; [5]): 141 nM | hSUCNR1 efficacy, % (hSUCNR1; IP3 turnover): 52.6 ± 3.9%

O=C(O)C[C@H](NC(=O)c1cccc(-c2ccc(OC(F)(F)F)cc2)c1)C(=O)O [Compound 30, (4′-(Trifluoromethoxy)-[1,1′-biphenyl]-3-carbonyl)-L-aspartic acid]
Active (SUCNR1): 1 (active (1)) | EC50 (mSUCNR1; [4]): 1450 nM | mSUCNR1 efficacy, % (mSUCNR1; IP3 turnover): 45.3 ± 3.4% | EC50 (hSUCNR1; [5]): 58.9 nM | hSUCNR1 efficacy, % (hSUCNR1; IP3 turnover): 49.2 ± 2.7%
